Legend:
Assay in all cases: Test E greenhouse herbicide test, pre- and postemergence
Assay type in all cases: in vivo
[1] = test system: waterhemp (common waterhemp, Amaranthus rudis)
Procedure, shortened: (§1)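 Compounds in surfactant-containing solvent are applied to soil right after sowing (silt loam) and, in parallel, to 1- to 4-leaf plants in a peat-based medium. Weed control is scored visually on a 0 (none) to 100 (complete) scale at 14 to 21 d.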

[2] = test system: johnsongrass (Sorghum halepense); conditions: Preemergence
Procedure, shortened: as §1

[3] = test system: arrowleaf sida (Sida rhombifolia)
Procedure, shortened: as §1

[4] = test system: surinam grass (Brachiaria decumbens); conditions: Preemergence
Procedure, shortened: as §1

[5] = test system: horseweed (Conyza canadensis); conditions: Postemergence
Procedure, shortened: as §1

[6] = test system: crabgrass, Brazilian (Brazilian crabgrass, Digitaria horizontalis)
Procedure, shortened: as §1

[7] = test system: velvetleaf (Abutilon theophrasti); conditions: Preemergence
Procedure, shortened: as §1

[8] = test system: foxtail, giant (giant foxtail, Setaria faberii); conditions: Preemergence
Procedure, shortened: as §1

[9] = test system: field bindweed (Convolvulus arvensis)
Procedure, shortened: as §1

[10] = test system: crabgrass, large (large crabgrass, Digitaria sanguinalis); conditions: Preemergence
Procedure, shortened: as §1

[11] = test system: nightshade (eastern black nightshade, Solanum ptycanthum); conditions: Preemergence
Procedure, shortened: as §1

[12] = test system: ragweed (common ragweed, Ambrosia elatior)
Procedure, shortened: as §1

[13] = test system: goosegrass (Eleusine indica); conditions: Preemergence
Procedure, shortened: as §1

[14] = test system: pigweed, palmer (palmer pigweed, Amaranthus palmeri)
Procedure, shortened: as §1

[15] = test system: dayflower (Virginia (VA) dayflower, Commelina virginica)
Procedure, shortened: as §1

[16] = test system: momingglory (Ipomoea coccinea); conditions: Preemergence
Procedure, shortened: as §1

[17] = test system: corn (Zea mays)
Procedure, shortened: as §1

[18] = 62 g ai/ha, Preemergence, scale 0 to 100 (0 no effect, 100 complete control)
[19] = 125 g ai/ha, Postemergence, scale 0 to 100 (0 no effect, 100 complete control)
[20] = 125 g ai/ha, Preemergence, scale 0 to 100 (0 no effect, 100 complete control)
[21] = 250 g ai/ha, Postemergence, scale 0 to 100 (0 no effect, 100 complete control)
[22] = Postemergence, 31 g ai/ha, visual, scale 0 no effect to 100 complete control
[23] = Preemergence, 31 g ai/ha, scale 0 to 100, 0 no effect, 100 complete control
[24] = Preemergence, 250 g ai/ha, visual, scale 0 no effect to 100 complete control
[25] = 62 g ai/ha, scale 0 to 100 (0 no effect, 100 complete control)
[26] = 125 g ai/ha, scale 0 to 100 (0 no effect, 100 complete control)
[27] = 31 g ai/ha, scale 0 to 100, 0 no effect, 100 complete control
[28] = 250 g ai/ha, visual, scale 0 no effect to 100 complete control
[29] = 62 g ai/ha, Postemergence, scale 0 to 100 (0 no effect, 100 complete control)

Cc1cc(C)c2sc(C)c(-c3c(OC(=O)OCCCl)c(C)nn(C)c3=O)c2c1 [Compound 85]
Plant response rating, Waterhemp [1, 18]: 80
Plant response rating, Waterhemp [1, 19]: 65
Plant response rating, Waterhemp [1, 20]: 70
Plant response rating, Waterhemp [1, 21]: 90
Plant response rating, Waterhemp [1, 22]: 50
Plant response rating, Waterhemp [1, 23]: 35
Plant response rating, Waterhemp [1, 24]: 85
Plant response rating, Johnsongrass [2, 25]: 0
Plant response rating, Johnsongrass [2, 26]: 0
Plant response rating, Johnsongrass [2, 27]: 0
Plant response rating, Johnsongrass [2, 28]: 0
Plant response rating, Arrowleaf Sida [3, 29]: 50
Plant response rating, Arrowleaf Sida [3, 18]: 0
Plant response rating, Arrowleaf Sida [3, 19]: 50
Plant response rating, Arrowleaf Sida [3, 20]: 50
Plant response rating, Arrowleaf Sida [3, 21]: 50
Plant response rating, Arrowleaf Sida [3, 22]: 40
Plant response rating, Arrowleaf Sida [3, 23]: 0
Plant response rating, Arrowleaf Sida [3, 24]: 70
Plant response rating, Surinam Grass [4, 25]: 70
Plant response rating, Surinam Grass [4, 26]: 70
Plant response rating, Surinam Grass [4, 27]: 60
Plant response rating, Surinam Grass [4, 28]: 90
Plant response rating, Horseweed [5, 25]: 85
Plant response rating, Horseweed [5, 26]: 85
Plant response rating, Horseweed ([5]; 250 g ai/ha, scale 0 to 100 (0 no effect, 100 complete control)): 90
Plant response rating, Horseweed ([5]; 31 g ai/ha, visual, scale 0 no effect to 100 complete control): 60
Plant response rating, Crabgrass, Brazil [6, 29]: 30
Plant response rating, Crabgrass, Brazil [6, 18]: 50
Plant response rating, Crabgrass, Brazil [6, 19]: 50
Plant response rating, Crabgrass, Brazil [6, 20]: 80
Plant response rating, Crabgrass, Brazil [6, 21]: 50
Plant response rating, Crabgrass, Brazil [6, 22]: 15
Plant response rating, Crabgrass, Brazil [6, 23]: 10
Plant response rating, Crabgrass, Brazil [6, 24]: 90
Plant response rating, Velvetleaf [7, 25]: 30
Plant response rating, Velvetleaf [7, 26]: 70
Plant response rating, Velvetleaf [7, 27]: 0
Plant response rating, Velvetleaf [7, 28]: 95
Plant response rating, Foxtail, Giant [8, 25]: 65
Plant response rating, Foxtail, Giant [8, 26]: 95
Plant response rating, Foxtail, Giant [8, 27]: 15
Plant response rating, Foxtail, Giant [8, 28]: 100
Plant response rating, Field Bindweed [9, 29]: 50
Plant response rating, Field Bindweed [9, 18]: 5
Plant response rating, Field Bindweed [9, 19]: 60
Plant response rating, Field Bindweed [9, 20]: 20
Plant response rating, Field Bindweed [9, 21]: 90
Plant response rating, Field Bindweed [9, 22]: 50
Plant response rating, Field Bindweed [9, 24]: 95
Plant response rating, Crabgrass, Large [10, 25]: 0
Plant response rating, Crabgrass, Large [10, 26]: 0
Plant response rating, Crabgrass, Large [10, 27]: 0
Plant response rating, Crabgrass, Large [10, 28]: 25
Plant response rating, Nightshade [11, 25]: 95
Plant response rating, Nightshade [11, 26]: 100
Plant response rating, Nightshade [11, 27]: 95
Plant response rating, Nightshade [11, 28]: 100
Plant response rating, Ragweed [12, 29]: 50
Plant response rating, Ragweed [12, 18]: 80
Plant response rating, Ragweed [12, 19]: 60
Plant response rating, Ragweed [12, 20]: 90
Plant response rating, Ragweed [12, 21]: 85
Plant response rating, Ragweed [12, 22]: 50
Plant response rating, Ragweed [12, 23]: 60
Plant response rating, Ragweed [12, 24]: 98
Plant response rating, Goosegrass [13, 25]: 5
Plant response rating, Goosegrass [13, 26]: 5
Plant response rating, Goosegrass [13, 27]: 5
Plant response rating, Goosegrass [13, 28]: 20
Plant response rating, Pigweed, Palmer [14, 29]: 80
Plant response rating, Pigweed, Palmer [14, 18]: 30
Plant response rating, Pigweed, Palmer [14, 19]: 80
Plant response rating, Pigweed, Palmer [14, 20]: 50
Plant response rating, Pigweed, Palmer [14, 21]: 80
Plant response rating, Pigweed, Palmer [14, 22]: 65
Plant response rating, Pigweed, Palmer [14, 23]: 25
Plant response rating, Pigweed, Palmer [14, 24]: 90
Plant response rating, Dayflower, VA [15, 29]: 60
Plant response rating, Dayflower, VA [15, 18]: 0
Plant response rating, Dayflower, VA [15, 19]: 60
Plant response rating, Dayflower, VA [15, 20]: 30
Plant response rating, Dayflower, VA [15, 21]: 80
Plant response rating, Dayflower, VA [15, 22]: 50
Plant response rating, Dayflower, VA [15, 23]: 0
Plant response rating, Dayflower, VA [15, 24]: 75
Plant response rating, Morningglory [16, 25]: 30
Plant response rating, Morningglory [16, 26]: 50
Plant response rating, Morningglory [16, 27]: 25
Plant response rating, Morningglory [16, 28]: 100
Plant response rating, Corn [17, 29]: 0
Plant response rating, Corn [17, 18]: 0
Plant response rating, Corn [17, 19]: 0
Plant response rating, Corn [17, 20]: 0
Plant response rating, Corn [17, 21]: 5
Plant response rating, Corn [17, 22]: 0
Plant response rating, Corn [17, 23]: 0
Plant response rating, Corn [17, 24]: 0

From US10597388B2, “Pyridazinone herbicides” (FMC CORPORATION, priority 2014, dated 2020)
